Among the data in patent US7326729B2, “CXCR1 and CXCR2 chemokine antagonists” (Schering Corporation, priority 2004, dated 2008) are Ki and melting point values, retold here.

Series [1] concerns the target T1, hCXCR2 (Homo sapiens, UniProt P25025).
T1 construct: purchased Biosignal; host or cells: CHO cells (membranes)
T1 sequence (P25025 1-360): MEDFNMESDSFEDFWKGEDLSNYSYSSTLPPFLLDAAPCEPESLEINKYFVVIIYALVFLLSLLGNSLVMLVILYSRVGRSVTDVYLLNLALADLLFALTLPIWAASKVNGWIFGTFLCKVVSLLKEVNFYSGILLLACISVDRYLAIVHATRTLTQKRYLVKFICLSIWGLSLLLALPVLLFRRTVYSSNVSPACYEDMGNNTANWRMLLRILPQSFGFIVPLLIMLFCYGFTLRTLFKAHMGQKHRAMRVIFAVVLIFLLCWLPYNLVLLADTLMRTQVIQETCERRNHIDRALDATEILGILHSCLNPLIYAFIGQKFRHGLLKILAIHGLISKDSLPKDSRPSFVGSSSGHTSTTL
In words: CXCR2 SPA Assay ([125I]-IL-8 receptor binding). The note with it: hCXCR2-CHO overexpressing membranes, [125I]-IL-8 0.1 nM. The method, then: For each well of a 96 well plate, a reaction mixture of 2.5 μg hCXCR2-CHO overexpressing membranes (Biosignal) and 200 μg/well WGA-SPA beads (Amersham) in 160 μl was prepared in CXCR2 assay buffer (25 mM HEPES, pH 7.4, 2 mM CaCl2, 1 mM MgCl2). A 1 nM stock of ligand, [125I]-IL-8 (NEN), was prepared in the CXCR2 assay buffer. 10× stock solutions of test compounds were prepared in DMSO (Sigma). The above solutions were added to a 96-well assay plate (PerkinElmer or Corning) as follows: 20 μl test compound or DMSO, 160 μl of reaction mixture, 20 μl of ligand stock (Final [Ligand]=0.1 nM). The assay plates were shaken for 5 minutes on a plate shaker, then incubated for 12 hours before cpm/well were determined in Microbeta Trilux counter (PerkinElmer).

For series [2], the target named is T2, hCXCR1 (Homo sapiens, UniProt P25024).
T2 construct: purchased Biosignal; host or cells: CHO cells (membranes)
T2 sequence (P25024 1-350): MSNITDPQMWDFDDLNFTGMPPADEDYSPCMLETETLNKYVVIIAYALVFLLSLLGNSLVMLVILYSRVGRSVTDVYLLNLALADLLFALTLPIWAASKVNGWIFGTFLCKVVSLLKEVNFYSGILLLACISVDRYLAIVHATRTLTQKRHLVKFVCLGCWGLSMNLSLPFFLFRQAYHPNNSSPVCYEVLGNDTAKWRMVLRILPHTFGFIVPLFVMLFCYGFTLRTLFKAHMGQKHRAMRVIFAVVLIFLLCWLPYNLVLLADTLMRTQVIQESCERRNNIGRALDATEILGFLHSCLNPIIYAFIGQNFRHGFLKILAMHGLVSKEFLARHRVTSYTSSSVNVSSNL
In words: CXCR1 SPA Assay ([125I]-IL-8 receptor binding). The following applies: hCXCR1-CHO overexpressing membranes, [125I]-IL-8 0.05 nM. The method, then: For each well of a 96 well plate, a reaction mixture of 2.2 μg hCXCR1-CHO overexpressing membranes (Biosignal) and 100 μg/well WGA-SPA beads (Amersham) in 160 μl was prepared in CXCR1 assay buffer (25 mM HEPES, pH 7.8, 2 mM CaCl2, 1 mM MgCl2, 125 mM NaCl, 0.1% BSA) (Sigma). A 0.5 nM stock of ligand, [125I]-IL-8 (NEN) was prepared in the CXCR1 assay buffer. 10× stock solutions of test compounds were prepared in 10% DMSO (Sigma). The above solutions were added to a 96-well assay plate (PerkinElmer) as follows: 20 μl test compound or DMSO, 160 μl of reaction mixture, 20 μl of ligand stock (Final [Ligand]=0.05 nM). The assay plates were shaken for 5 minutes on plate shaker, then incubated for 12 hours before cpm/well were determined in Microbeta Trilux counter (PerkinElmer). % Inhibition of Total binding-NSB (250 nM IL-8) was determined for IC50 values.

Several values for one entry are separate records, joined by “and”; a condition that tells them apart may be missing. Equal values may be shown once.

A word on the Ki: it is a measure of affinity in units of concentration, obtained from inhibition or displacement. The low end stands for a stronger hold on the target, the high end for a looser hold on the target. `CN(C)S(=O)(=O)c1scc(NC(=O)Nc2ccccc2Br)c1O` [Example 20.1] came in with a Ki in series [1] of 5 to 91 nM.
For `CCN(CC)S(=O)(=O)c1scc(NC(=O)Nc2cccc(Cl)c2Cl)c1O` [Example 20.3], the Ki in series [2] is 652 to 1920 nM; in series [1], 5 to 91 nM.
Compound `CCNS(=O)(=O)c1scc(NC(=O)Nc2cccc(Cl)c2Cl)c1O` [Example 20.7] registered a Ki in series [1] of 5 to 91 nM.
`CCNS(=O)(=O)c1scc(NC(=O)Nc2ccccc2Br)c1O` [Example 20.10] yielded a Ki in series [1] of 5 to 91 nM.
With `CC(C)NS(=O)(=O)c1scc(NC(=O)Nc2cccc(Cl)c2Cl)c1O` [Example 20.11], the Ki in series [2] is 652 to 1920 nM.
Regarding `CC(C)NS(=O)(=O)c1scc(NC(=O)Nc2ccccc2Br)c1O` [Example 20.12], in series [1], the Ki fell in the range of 5 to 91 nM.
On to `CC(C)(C)NS(=O)(=O)c1scc(NC(=O)Nc2cccc(Cl)c2Cl)c1O` [Example 20.13], for which the Ki in series [2] was in the range of 652 to 1920 nM.
Turning to `CN(C(C)(C)C)S(=O)(=O)c1scc(NC(=O)Nc2cccc(Cl)c2Cl)c1O` [Example 20.14], the Ki in series [2] is 652 to 1920 nM and 652 nM.
Regarding `CCN(C(C)(C)C)S(=O)(=O)c1scc(NC(=O)Nc2cccc(Cl)c2Cl)c1O` [Example 20.15], the values for the Ki in series [2] and in series [1] were 652 to 1920 nM and 5 to 91 nM, respectively.
Turning to `CN(C1CC1)S(=O)(=O)c1scc(NC(=O)Nc2cccc(Cl)c2Cl)c1O` [Example 20.16], the Ki in series [2] is 652 to 1920 nM; in series [1], 5 to 91 nM and 5 to 10 nM and 6 nM.
For `CN(C1CCC1)S(=O)(=O)c1scc(NC(=O)Nc2cccc(Cl)c2Cl)c1O` [Example 20.17], the Ki in series [1] is 5 to 91 nM.
Take `O=C(Nc1csc(S(=O)(=O)N2CCCC2)c1O)Nc1cccc(Cl)c1Cl` [Example 20.18]: the Ki in series [2] fell in the range of 652 to 1920 nM; in series [1] it was 5 to 91 nM.
Turning to `O=C(Nc1ccccc1Br)Nc1csc(S(=O)(=O)N2CCCC2)c1O` [Example 20.19], the Ki lay within 652 to 1920 nM in series [2] and 5 to 91 nM in series [1].
For the compound `NS(=O)(=O)c1scc(NC(=O)Nc2cccc(Cl)c2Cl)c1O` [Example 20.21], the Ki in series [1] lay in the range of 5 to 91 nM.
Still for that read-out and setting: next, `CN(C)S(=O)(=O)c1scc(NC(=O)Nc2cccc(Cl)c2Cl)c1O` [Example 20]: 5 to 91 nM.
With `CCCN(C)S(=O)(=O)c1scc(NC(=O)Nc2cccc(Cl)c2Cl)c1O` [Example 21.1], the Ki in series [1] is 5 to 91 nM and 5 to 10 nM.
Regarding `CCCCN(C)S(=O)(=O)c1scc(NC(=O)Nc2cccc(Cl)c2Cl)c1O` [Example 21.2], the Ki in series [1] fell in the range of 5 to 91 nM.
In series [1], `CC(C)CN(C)S(=O)(=O)c1scc(NC(=O)Nc2cccc(Cl)c2Cl)c1O` [Example 21.3] showed a Ki of 5 to 91 nM.
For `CC(C)N(C)S(=O)(=O)c1scc(NC(=O)Nc2cccc(Cl)c2Cl)c1O` [Example 21.4], the Ki in series [1] is 5 to 91 nM and 5 to 10 nM.
As for `CCN1CCN(S(=O)(=O)c2scc(NC(=O)Nc3cccc(Cl)c3Cl)c2O)CC1` [Example 21.5], the values for the Ki in series [2] and in series [1] were 652 to 1920 nM and 5 to 91 nM, respectively.
For `O=C(Nc1csc(S(=O)(=O)N2CCC[C@@H]2CO)c1O)Nc1cccc(Cl)c1Cl` [Example 21.6], the Ki in series [2] is 652 to 1920 nM; in series [1], 5 to 91 nM and 5 to 10 nM.
Turning to `O=C(Nc1csc(S(=O)(=O)N2CCC[C@H]2CO)c1O)Nc1cccc(Cl)c1Cl` [Example 21.7], the Ki is 652 to 1920 nM in series [2]; 5 to 91 nM and 5 to 10 nM in series [1].
`O=C(Nc1csc(S(=O)(=O)NC2(CO)CCCC2)c1O)Nc1cccc(Cl)c1Cl` [Example 21.8] yielded a Ki in series [1] of 5 to 91 nM.
For the compound `O=C(Nc1csc(S(=O)(=O)NC2CC2)c1O)Nc1cccc(Cl)c1Cl` [Example 21.10], the Ki was in the range of 652 to 1920 nM in series [2] and 5 to 91 nM in series [1].
Compound `CC(C)[C@@H](CO)NS(=O)(=O)c1scc(NC(=O)Nc2cccc(Cl)c2Cl)c1O` [Example 21.12] gave a Ki in series [1] of 5 to 91 nM.
For `CNS(=O)(=O)c1scc(NC(=O)Nc2cccc(Cl)c2Cl)c1O` [Example 21.14], the Ki is 652 to 1920 nM in series [2]; 5 to 91 nM and 5 to 10 nM in series [1].
Turning to `CCN(C)S(=O)(=O)c1scc(NC(=O)Nc2cccc(Cl)c2Cl)c1O` [Example 21], the Ki in series [1] lay in the range of 5 to 91 nM.
One may read the melting point as the temperature, or range, at which the solid turns liquid. For `CCN(C)S(=O)(=O)c1scc(NC(=S)Nc2cccc(Cl)c2Cl)c1O` [Example 22], the melting point lay in the range of 112 to 115 °C. Besides, in series [1], the Ki lay within 5 to 91 nM.
